# Experimental data taken from US20190142722A1, “METHODS AND COMPOSITIONS FOR PROMOTING OR INDUCING HAIR GROWTH” (THE TRUSTEES OF COLUMBIA UNIVERSITY IN THE CITY OF NEW YORK, priority 2017, published 2019).
# B1: OSM: secreted cytokine of the LIF/OSM family; murine OSM used in tests (protein, UniProt P53347 25-206, looked up)
# Oncostatin-M: NRGCSNSSSQLLSQLQNQANLTGNTESLLEPYIRLQNLNTPDLRAACTQHSVAFPSEDTLRQLSKPHFLSTVYTTLDRVLYQLDALRQKFLKTPAFPKLDSARHNILGIRNNVFCMARLLNHSLEIPEPTQTDSGASRSTTTPDVFNTKIGSCGFLWGYHRFMGSVGRVFREWDDGSTRSRR
# B2: IL-6: gp130 cytokine, murine IL-6 (protein, UniProt P08505 25-211, looked up)
# Interleukin-6: FPTSQVRRGDFTEDTTPNRPVYTTSQVGGLITHVLWEIVEMRKELCNGNSDCMNNDDALAENNLKLPEIQRNDGCYQTGYNQEICLLKISSGLLEYHSYLEYMKNNLKDNKKDKARVLQRDTETLIHIFNQEVKDLHKIVLPTPISNALLTDKLESQKEWLRTKTIQFILKSLEEFLKVTLRSTRQT
# What was measured:
# [1] = system: T regulatory cells / macrophages; assay: Anagen initiation after T regulatory cell depletion or macrophage targeting; type: in vivo, mouse
# Protocol: (§1) Neutralizing antibodies to OSMR (7.5 μg) were injected intradermally into the dorsal telogen skin daily for 14 days from P60 (mid-telogen). Neutralizing antibodies to CSFL1R (AFS98) and F4/80 (CI:A3-1) were diluted in sterile PBS, and 500 μg was injected intradermally into the dorsal telogen skin for 14 consecutive days. Neutralizing antibodies to CD25 (PC61.5) were injected intraperitoneally every other day (250 μg/dose×3) from P53, prior to anagen induction at P60.
# macrophages = assay: Macrophage inhibition during telogen to initiate anagen; type: in vivo, mouse; settings: mid-telogen, C57BL/6 mice
# Protocol: as §1
# (§2) For in vivo macrophage inhibition, the small molecule Pexidartinib/PLX3397 was administered topically (2 mM in DMSO) or subcutaneously (1 mM in corn oil) for 5 consecutive days from P60. For OSM knock-down, peritoneal macrophages were harvested from adult C57BL/6 mice and cultured in DMEM/F12/15% FBS/0.3 mMCa2+ the presence of […] M-CSF to polarize them to an “M2-like” phenotype, similar to trichophages. Lentiviral precipitate containing scrambled or OSM shRNA added to the media in the presence of 8 μg/ml protamine sulphate, and the cells were centrifuged at 3000 rpm for 1 h at 32° C. to enhance transduction. Successful transductions were enriched with puromycin (1 μg/ml) selection, counted and used for the patch assay.
# Three independent methods of macrophage inhibition during telogen were used to initiate anagen in C57BL/6 mice.
# alopecia areata = settings: patients, literature (Mackay-Wiggan 2016; Kennedy Crispin 2016); cited from earlier work
# [2] = system: Neonatal keratinocytes and dermal cells; assay: Hair reconstitution (patch) assay; type: in vivo; settings: tofacitinib 400 nM or OSM 25 ng/ml added to cell slurry injected intradermally into nude mouse
# Protocol: as §2
# Neonatal (P0 or P1) mice were sacrificed and skins were harvested for the patch assay. Neonatal skins were enzymatically separated with 0.25% trypsin, and the dermis was further digested with 0.3% collagenase/DNase. Neonatal keratinocytes and dermal cells were counted recombined in a 1:1 ratio ([…] each) and resuspended in 100 μl of media (1:1 mix of DMEM/10% FBS and CnT-0.7S) and injected intradermally into the dorsal skin of a nude mouse. For pharmacological/cytokine treatment, tofacitinib (400 nM) and/or OSM (25 ng/ml) was added. […]
# (ITGA6+ Sca-1−) HFSCs = assay: Colony-forming assay with isolated HFSCs; type: cell-based, mouse; settings: for colony formation of HFSCs: OSM 10 ng/ml or Tofacitinib 100 nM alone
# Protocol: (§3) HFSCs (ITGA6+ Sca-1−) cells were collected from flow cytometry and plated onto 6-well plates, and maintained with Cnt-07S keratinocyte media. In vitro stimulation experiments were carried out when keratinocytes were 80-90% confluent. Confluent HFSCs were pre-treated with JAK inhibitors (tofacitinib, ruxolitinib or PF-06651600, all at 10 μM) for 20 min, and murine OSM was added for a final concentration of 10 ng/ml or 20 ng/ml for 15 min. For clonogenic assays, HFSCs were plated at a density of 10,000 cells per well and maintained for 2 weeks. For analysis of clonogenicity, plates were washed with PBS, and keratinocytes were fixed in situ with 4% paraformaldehyde (PFA) for 1 hour, followed by staining with 1% (wt/vol) Rhodamine B (Sigma-Aldrich) for 1 h. Clones were quantified using a backlight.
# Colony-forming assays with isolated (ITGA6+ Sca-1−) HFSCs were performed in the presence of OSM (10 ng/ml), Tofacitinib (100 nM) or both. […] (FIG. 1E).
# [3] = system: Hair follicle stem cells (HFSCs); assay: Western blot of cultured HFSCs stimulated with OSM, with or without JAK inhibitor pre-treatment; type: cell-based, mouse
# Protocol: as §3
# Cells were lyzed in RIPA buffer in the presence of protease and phosphatase inhibitors on ice, and protein lysates were resuspended in Laemmli sample buffer. Whole-cell lysates were fractionated on TGX Stain-free protein gels and transferred to a PVDF membrane, blocked with 5% non-fat milk in TBST, and incubated with antibodies listed in the Key Resources Table (all 1:1000, diluted in TBST/3% BSA) overnight. Membranes were washed the following day and incubated with HRP-conjugated secondary antibodies (1:5000), washed, and developed with Luminata Forte Western HRP Substrate and visualized on the BioRAD ChemiDOC MP Imaging system. GAPDH or (3-actin were used as loading controls, depending on the mass of the proteins of interest.
# Hair follicle stem cells (HFSCs) (ITGA6+ Sca-1− population isolated from telogen skin), were cultured and stimulated with OSM at 10 ng/ml and 20 ng/ml. […] (FIG. 1C).
# telogen skin [4] = assay: Anagen induction by topical JAK inhibitor in mouse telogen skin; type: in vivo; settings: topical to dorsal skin for 5 days at P60 (mid-telogen), C57BL/6 mice
# Description: (§4) Mice were carefully shaved with clippers during telogen to reveal the pink skin typical of the telogen phase 1 week prior to the experiment. Mice that were inadvertently wounded were not used. Anagen was induced by topical application of 2% Ruxolitinib in DMSO to the right side of the dorsal skin daily for 5 consecutive days. The hair cycle was observed and documented with standardized photographs taken prior to the first treatment, and then twice weekly thereafter. Murine IL-6, LIF or OSM (100 ng/ml, 50 ng/ml, 125 ng/ml respectively) were dissolved in sterile PBS and 100 μl was injected into the center of the field of application daily for 10 consecutive days, beginning with the first application of Ruxolitinib.
# (§5) OSM and other gp130 cytokines (IL-6 and Leukemia Inhibitory Factor, LIF) were tested for their ability to inhibit anagen resulting from topical JAK inhibitors, which resembles spontaneous anagen. C57BL/6 mice were treated on the right dorsal skin topically with Ruxolitinib 2% in DMSO at P60 (mid-telogen) for 5 days, recapitulating previous experiments in Harel, S., et al., Pharmacologic inhibition of JAK-STAT signaling promotes hair growth. Sci Adv, 2015. 1(9): p. e1500973. […] From P60, mice were also injected with control PBS or a gp130 cytokine (IL-6, LIF or OSM) into the middle of the field of topical application for 10 days. […] (FIG. 1A).
# hair follicles = settings: cited from earlier work
# telogen skin [5] = assay: Inhibition of topical JAK inhibitor-induced anagen by intradermal gp130 cytokines; type: in vivo, mouse; settings: cytokine injected intradermally into middle of field of topical application for 10 days from P60, C57BL/6 mice
# Description: as §4, §5
# [6] = pre-treatment 10 μM for 20 min before OSM
# [7] = OSM at 10 ng/ml and 20 ng/ml, cultured HFSCs
molecule,measurement,setting,value
"FC(F)(F)c1ccc(CNc2ccc(Cc3c[nH]c4ncc(Cl)cc34)cn2)cn1 [Pexidartinib, 5-[(5-chloro-1H-pyrrolo[2,3-b]pyridin-3-yl)methyl]-N-[[6-(trifluoromethyl)pyridin-3-yl]methyl]pyridin-2-amine]",anagen initiation compared with wild-type mice treated with a JAK-inhibitor,[1],initiated anagen in the same manner as wild-type mice treated with a JAK-inhibitor
same,anagen initiation,macrophages; subcutaneous (1 mM in corn oil) for 5 days,successful at initiating anagen
same,anagen initiation,macrophages; topical (2 mM in DMSO) for 5 days,successful at initiating anagen
C[C@@H]1CCN(C(=O)CC#N)C[C@@H]1N(C)c1ncnc2[nH]ccc12 [Tofacitinib],efficacy in alopecia areata,alopecia areata,efficacious in the treatment of alopecia areata
same,hair reconstitution in patch assay,[2],enhanced the hair follicles generated in this assay
same,colony formation of HFSCs,(ITGA6+ Sca-1−) HFSCs,"increased the colony-forming ability of HFSCs, as well as increasing the colony size"
same,rescue of the inhibitory effects of OSM on colony formation,(ITGA6+ Sca-1−) HFSCs; Tofacitinib 100 nM together with OSM 10 ng/ml,sufficient to rescue the inhibitory effects of OSM
same,effect on JAK phosphorylation in OSM-stimulated HFSCs (Western blot),[3]; [6],inhibited phosphorylation of a variety of JAKs
same,effect on pSTAT3 / pSTAT5 activation in OSM-stimulated HFSCs (Western blot),[3]; [6],inhibited both pSTAT3 and pSTAT5 activation
same,inhibition of OSM-activated pathways by pre-treatment (Western blot),"[3]; pre-treatment 10 μM for 20 min before OSM, cultured HFSCs","inhibited the JAK-STAT and, to a lesser extent, the MAPK-MEK-ERK pathways"
C=CC(=O)N1C[C@H](Nc2ncnc3[nH]ccc23)CC[C@@H]1C [PF-06651600],anagen induction in telogen skin,telogen skin [4],sufficient to initiate anagen
same,effect on JAK phosphorylation in OSM-stimulated HFSCs (Western blot),[3]; [6],did not have an effect on JAK1/JAK2/Tyk2 or STAT3 phosphorylation
same,effect on pSTAT3 / pSTAT5 activation in OSM-stimulated HFSCs (Western blot),[3]; [6],without significant inhibition of STAT3 phosphorylation
same,effect on pSTAT3 / pSTAT5 activation in OSM-stimulated HFSCs (Western blot),"[3]; pre-treatment 10 μM for 20 min before OSM, listed as PF-06651660",still inhibited pSTAT5 activation
B1,hair reconstitution in patch assay,[2],sufficient to nearly completely inhibit hair reconstitution
same,colony formation of HFSCs,(ITGA6+ Sca-1−) HFSCs,prevented colonies from forming in vitro
same,effect on anagen,"hair follicles; mouse, literature",potent inhibitor of anagen
same,inhibition of anagen resulting from topical Ruxolitinib,telogen skin [5],inhibited anagen in the area it was administered
same,activation of JAK-STAT and MAPK-MEK-ERK pathways (Western blot),[3]; [7],activated JAK-STAT1/3/5 pathways and the MAPK-MEK-ERK pathways in HFSCs in a dose-dependent fashion
same,effect on PI3K/Akt/mTOR pathway (Western blot),[3]; [7],minimal effect on the PI3K/Akt/mTOR pathway
same,"activation of JAKs, pSTAT3 and pSTAT5 (Western blot)",[3]; OSM-stimulated cultured HFSCs,"dose-dependent activation of all four JAKs (JAK1, JAK2, JAK3, Tyk2), as well as pSTAT3 and pSTAT5"
B2,induction of catagen,"hair follicles; anagen HFs, literature (Kwack 2012)",IL-6 induced catagen in anagen HFs
same,inhibition of anagen resulting from topical Ruxolitinib,telogen skin [5],OSM was the only member of this class of cytokines that inhibited anagen
